The values that follow come from patent US20090306133A1, “New Acetyl Coenzyme A Carboxylase (ACC) Inhibitors And Uses In Treatments Of Obesity And Diabetes Mellitus - 087” (ASTRAZENECA AB, priority 2007, published 2009).

Structures are written as SMILES.

Test [1] addresses Human recombinant Acetyl-CoA Carboxylase 2 (ACC2) (Homo sapiens, UniProt O00763). Kind of test: Assay Y: ACC2 inhibition, inorganic phosphate (Malachite Green). The class given is biochemical. As to conditions: Assay Y: room temperature, 3 hr, 15 min preincubation. How it is done:
(§1) Preincubation of 6 μL enzyme together with 0.3 μL compound for 15 min was done before the reaction was initiated by the addition of 4 μL substrate. […] After 3 hr the reaction was stopped by addition of 60 μL of water followed by 30 μL Malachite Green solution. The Malachite Green solution was prepared by mixing 16.4 mL ammonium molybdate solution (7.5%), 1.64 mL Tween (11%) with 82 mL Malachite Green/H2SO4-solution (0.7 g Malachite Green to 1000 mL of 10% (v/v) H2SO4). Plates were left for 10 min at room temperature before reading the absorbance at 670 nm. All compounds were tested in triplicate at 10 different concentrations. Control compound (0, 50 and 100% effect) was included on each plate. […] An IC50 value was derived by non-linear regression curve fitting using the following equation: […]))) where A is the non-specific binding, B is the total binding, C is the IC50 and D is the slope. Saturation binding Kd and Bmax were derived using the equation y=((B1 max*x)/(Kd+x)).

In test [2] the target is Human recombinant Acetyl-CoA Carboxylase 1 (ACC1) (Homo sapiens, UniProt Q13085). The test is described as follows: Assay Y: ACC1 inhibition, inorganic phosphate (Malachite Green). Particulars: Assay Y: room temperature, 3 hr, 15 min preincubation. The class given is biochemical. How it is done: as §1

Human recombinant Acetyl-CoA Carboxylase 2 (ACC2), sequence (O00763 whole entry): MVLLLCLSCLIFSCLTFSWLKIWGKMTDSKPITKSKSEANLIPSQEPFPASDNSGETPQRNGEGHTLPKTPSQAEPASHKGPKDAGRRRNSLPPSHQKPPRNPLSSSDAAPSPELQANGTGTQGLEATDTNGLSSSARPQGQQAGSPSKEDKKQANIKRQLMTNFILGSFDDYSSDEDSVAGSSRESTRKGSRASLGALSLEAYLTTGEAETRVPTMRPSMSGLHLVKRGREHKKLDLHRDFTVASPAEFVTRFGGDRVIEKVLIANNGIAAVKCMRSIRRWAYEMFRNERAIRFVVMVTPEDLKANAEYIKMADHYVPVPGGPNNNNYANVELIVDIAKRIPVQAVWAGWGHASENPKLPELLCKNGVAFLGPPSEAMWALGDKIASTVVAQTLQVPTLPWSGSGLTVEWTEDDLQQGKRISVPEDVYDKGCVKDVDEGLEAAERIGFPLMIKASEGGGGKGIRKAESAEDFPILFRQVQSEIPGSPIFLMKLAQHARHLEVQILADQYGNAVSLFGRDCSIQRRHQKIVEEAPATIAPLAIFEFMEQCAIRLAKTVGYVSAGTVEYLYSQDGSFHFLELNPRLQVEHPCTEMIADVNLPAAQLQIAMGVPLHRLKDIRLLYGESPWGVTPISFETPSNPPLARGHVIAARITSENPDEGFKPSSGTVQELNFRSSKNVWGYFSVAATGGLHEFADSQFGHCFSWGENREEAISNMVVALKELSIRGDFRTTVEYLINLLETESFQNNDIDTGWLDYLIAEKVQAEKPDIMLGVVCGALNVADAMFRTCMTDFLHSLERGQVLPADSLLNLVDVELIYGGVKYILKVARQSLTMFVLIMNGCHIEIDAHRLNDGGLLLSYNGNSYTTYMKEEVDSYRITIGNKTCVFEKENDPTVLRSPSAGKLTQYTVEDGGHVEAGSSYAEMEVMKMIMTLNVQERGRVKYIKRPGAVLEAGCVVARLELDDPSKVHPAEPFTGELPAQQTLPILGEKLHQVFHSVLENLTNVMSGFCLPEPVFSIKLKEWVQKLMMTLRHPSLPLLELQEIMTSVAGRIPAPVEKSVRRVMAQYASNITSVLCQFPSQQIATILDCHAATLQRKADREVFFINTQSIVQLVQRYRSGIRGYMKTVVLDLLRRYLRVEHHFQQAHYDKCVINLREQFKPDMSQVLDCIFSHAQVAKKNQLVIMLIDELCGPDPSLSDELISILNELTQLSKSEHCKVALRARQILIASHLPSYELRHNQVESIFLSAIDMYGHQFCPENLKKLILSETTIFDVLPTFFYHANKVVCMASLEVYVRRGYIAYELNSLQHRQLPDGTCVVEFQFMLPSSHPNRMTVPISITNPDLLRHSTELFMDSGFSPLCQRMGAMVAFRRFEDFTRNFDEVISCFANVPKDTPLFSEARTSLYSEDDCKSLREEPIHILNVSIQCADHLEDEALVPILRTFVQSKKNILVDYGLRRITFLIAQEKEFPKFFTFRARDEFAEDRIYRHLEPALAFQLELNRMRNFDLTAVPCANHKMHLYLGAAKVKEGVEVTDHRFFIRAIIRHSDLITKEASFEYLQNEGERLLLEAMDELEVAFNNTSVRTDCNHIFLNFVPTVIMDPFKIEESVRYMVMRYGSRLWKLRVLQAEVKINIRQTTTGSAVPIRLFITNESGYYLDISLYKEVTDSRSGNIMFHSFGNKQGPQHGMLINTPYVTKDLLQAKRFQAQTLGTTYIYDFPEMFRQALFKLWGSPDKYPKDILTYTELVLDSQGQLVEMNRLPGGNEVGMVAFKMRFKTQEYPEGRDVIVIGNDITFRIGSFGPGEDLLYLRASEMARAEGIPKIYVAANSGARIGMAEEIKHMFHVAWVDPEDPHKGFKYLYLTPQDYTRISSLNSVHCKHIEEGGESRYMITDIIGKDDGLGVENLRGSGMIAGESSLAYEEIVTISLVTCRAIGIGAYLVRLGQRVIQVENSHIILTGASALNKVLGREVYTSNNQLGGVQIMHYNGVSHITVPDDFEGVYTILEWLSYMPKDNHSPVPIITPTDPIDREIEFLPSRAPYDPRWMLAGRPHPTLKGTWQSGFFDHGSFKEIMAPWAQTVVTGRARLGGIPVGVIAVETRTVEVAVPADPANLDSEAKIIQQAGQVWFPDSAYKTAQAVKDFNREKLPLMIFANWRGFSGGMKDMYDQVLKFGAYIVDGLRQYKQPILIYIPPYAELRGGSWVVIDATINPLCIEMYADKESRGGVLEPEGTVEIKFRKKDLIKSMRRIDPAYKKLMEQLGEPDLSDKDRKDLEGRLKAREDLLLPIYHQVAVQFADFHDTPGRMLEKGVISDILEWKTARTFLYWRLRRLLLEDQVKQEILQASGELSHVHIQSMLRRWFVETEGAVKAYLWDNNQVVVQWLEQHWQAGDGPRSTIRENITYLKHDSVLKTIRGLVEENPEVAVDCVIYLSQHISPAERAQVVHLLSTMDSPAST

What is called IC50 is the concentration that inhibits the measured activity by half. For `CC(C)(C)OC(=O)NC[C@H]1CC[C@H](CNC(=O)c2ccnc(-c3cc4ccccc4s3)c2)CC1` [Example 45, tert-Butyl {[trans-4-({[2-(1-benzothiophen-2-yl)isonicotinoyl]amino}methyl)cyclo-hexyl]methyl}carbamate], the IC50 is 4350 nM in test [1] and above 20000 nM in test [2].
The corresponding values for `CC(C)(C)OC(=O)NC[C@H]1CC[C@H](CNC(=O)c2cc(-c3ccc(C#N)cc3)nc3ccccc23)CC1` [Example 34, tert-Butyl ({trans-4-[({[2-(4-cyanophenyl)quinolin-4-yl]carbonyl}amino)methyl]cyclo-hexyl}methyl)carbamate] are 220 nM and 1170 nM.
For `CC(C)(C)OC(=O)NC[C@H]1CC[C@H](CNS(=O)(=O)c2cccc3cnccc23)CC1` [Example 76, tert-Butyl [(trans-4-{[(isoquinolin-5-ylsulfonyl)amino]methyl}cyclohexyl)-methyl]carbamate], the IC50 in test [1] is 3620 nM; in test [2], above 20000 nM.
With `CCOC(=O)NC[C@H]1CC[C@H](CNC(=O)c2cc(-c3cccc(C(N)=O)c3)nc3ccccc23)CC1` [Example 19, Ethyl ({trans-4-[({[2-(3-carbamoylphenyl)quinolin-4-yl]carbonyl}amino)methyl]-cyclohexyl}methyl)carbamate], the figures for the IC50 in test [1] and in test [2] were 780 nM and 1210 nM, respectively.
With `CN(C)S(=O)(=O)c1ccc(-c2cc(C(=O)NC[C@H]3CC[C@H](CNC(=O)OC4CCOCC4)CC3)c3ccccc3n2)cc1` [Example 140, Tetrahydro-2H-pyran-4-yl{[trans-4-({[(2-{4-[(dimethylamino)sulfonyl]phenyl}quinolin-4-yl)carbonyl]amino}-methyl)cyclohexyl]-methyl}carbamate], the IC50 came to 960 nM in test [1] and 3310 nM in test [2].
The matching figures for `Cc1cc(C(=O)NC[C@H]2CC[C@H](CNC(=O)OC(C)(C)C)CC2)cc(-c2ccccc2)n1` [Example 43, tert-Butyl [(trans-4-{[(2-methyl-6-phenylisonicotinoyl)amino]methyl}cyclohexyl)-methyl]carbamate]: 5820 nM and 8310 nM.
Consider `CC(C)(C)OC(=O)NC[C@H]1CC[C@H](CNC(=O)c2cc(-c3ccc(Cl)cc3)nc3ccccc23)CC1` [Example 21, tert-Butyl ({trans-4-[({[2-(4-chlorophenyl)quinolin-4-yl]carbonyl}amino)methyl]cyclo-hexyl}methyl)carbamate], for which the 50% inhibitory concentration (IC50) in test [1] came to 970 nM; in test [2], 1490 nM.
For the compound `CC(C)(C)OC(=O)NC[C@H]1CC[C@H](CNS(=O)(=O)c2cccc3cccnc23)CC1` [Example 66, tert-Butyl [(trans-4-{[(quinolin-8-ylsulfonyl)amino]methyl}cyclohexyl)methyl]-carbamate], the IC50 in test [1] amounted to 1390 nM; in test [2], 6790 nM.
Take `CCN(C[C@H]1CC[C@H](CNC(=O)OC(C)(C)C)CC1)S(=O)(=O)c1ccc(-c2csc(C)n2)s1` [Example 90, tert-Butyl ({trans-4-[(ethyl {[5-(2-methyl-1,3-thiazol-4-yl)-2-thienyl]sulfonyl}amino)-methyl]cyclohexyl}methyl)carbamate]: the concentration for half-maximal inhibition (IC50) in test [1] was 2010 nM; in test [2], above 20000 nM.
The corresponding values for `CC(C)(C)OC(=O)NC[C@H]1CC[C@H](CNC(=O)c2cc(N3CCC(CCO)CC3)nc3ccccc23)CC1` [Example 189, tert-butyl [(trans-4-{[({2-[4-(2-hydroxyethyl)piperidin-1-yl]quinolin-4-yl}carbonyl)amino]methyl}cyclohexyl)methyl]carbamate] are 70 nM and 1960 nM.
The matching figures for `Cc1nc(-c2ccc(S(=O)(=O)NC[C@H]3CC[C@H](CNC(=O)OC(C)(C)C)CC3)s2)cs1` [Example 70, tert-Butyl ({trans-4-[({[5-(2-methyl-1,3-thiazol-4-yl)-2-thienyl]sulfonyl}amino)-methyl]cyclohexyl}methyl)carbamate]: 2850 nM and above 20000 nM.
The matching figures for `CCOC(=O)NC[C@H]1CC[C@H](CNC(=O)c2cc(-c3cnccn3)nc3ccccc23)CC1` [Example 26, Ethyl {[trans-4-({[(2-pyrazin-2-ylquinolin-4-yl)carbonyl]amino}methyl)cyclohexyl]-methyl}carbamate]: 4030 nM and above 20000 nM.
`CC(C)(C)OC(=O)NC[C@H]1CC[C@H](CNS(=O)(=O)c2ccc(Cl)c(Cl)c2)CC1` [Example 65, tert-Butyl {[trans-4-({[(3,4-dichlorophenyl)sulfonyl]amino}methyl)cyclohexyl]methyl}-carbamate]: the results for the half-maximal inhibitory concentration (IC50) in test [1] and in test [2] were 3880 nM and above 20000 nM, respectively.
On to `C[C@@H](CO)Nc1ccc(-c2cc(C(=O)NC[C@H]3CC[C@H](CNC(=O)OC(C)(C)C)CC3)c3ccccc3n2)cn1` [Example 148, tert-Butyl({trans-4-[({[2-(6-{[(1S)-2-hydroxy-1-methylethyl]amino}-pyridin-3-yl)quinolin-4-yl]carbonyl}amino)-methyl]cyclohexyl}-methyl)carbamate], for which the IC50 amounted to 70 nM in test [1] and 460 nM in test [2].
The corresponding values for `CC(C)(C)OC(=O)NC[C@H]1CC[C@H](CNC(=O)c2cc(-c3ccc(NCCO)nc3)nc3ccccc23)CC1` [Example 143, tert-Butyl{[trans-4-({[(2-{6-[(2-hydroxyethyl)amino]pyridin-3-yl}quinolin-4-yl)carbonyl]amino}methyl)cyclohexyl]methyl}carbamate] are 30 nM and 360 nM.
The matching figures for `CC(C)(C)OC(=O)NC[C@H]1CC[C@H](CNC(=O)c2cc(-c3ccncc3)nc3ccccc23)CC1` [Example 7, tert-butyl {[trans-4-({[(2-pyridin-4-ylquinolin-4-yl)carbonyl]amino}methyl)cyclohexyl]methyl}-carbamate]: 210 nM and 1030 nM.
The corresponding values for `C[C@@H](CO)OC(=O)NC[C@H]1CC[C@H](CNC(=O)c2cc(-c3ccc(N4CCN(C)CC4)nc3)nc3ccccc23)CC1` [Example 133, (1S)-2-Hydroxy-1-methylethyl [(trans-4-{[({2-[6-(4-methylpiperazin-1-yl)pyridin-3-yl]quinolin-4-yl}carbonyl)amino]methyl}cyclohexyl)methyl]carbamate] are 660 nM and 2490 nM.
In the case of `CC(C)(C)OC(=O)NC[C@H]1CC[C@H](CNC(=O)c2cc(-c3cnccn3)nc3ccccc23)CC1` [Example 3, tert-Butyl {[trans-4-({[(2-pyrazin-2-ylquinolin-4-yl)carbonyl]amino}methyl)cyclohexyl]methyl}carbamate], the IC50 was determined as 650 nM in test [1] and 1520 nM in test [2].
The corresponding values for `CCOC(=O)NC[C@H]1CC[C@H](CNC(=O)c2cc(-c3ccc(C(N)=O)cc3)nc3ccccc23)CC1` [Example 61, Ethyl ({trans-4-[({[2-(4-carbamoylphenyl)quinolin-4-yl]carbonyl}amino)methyl]-cyclohexyl}methyl)carbamate] are 550 nM and 1000 nM.
In the case of `Cc1nc(-c2cccc(S(=O)(=O)NC[C@H]3CC[C@H](CNC(=O)OC(C)(C)C)CC3)c2)no1` [Example 75, tert-Butyl ({trans-4-[({[3-(5-methyl-1,2,4-oxadiazol-3-yl)phenyl]sulfonyl}amino)-methyl]cyclohexyl}methyl)carbamate], the results for the IC50 in test [1] and in test [2] were 4270 nM and above 20000 nM, respectively.
The corresponding values for `CN1CCN(c2ccc(-c3cc(C(=O)NC[C@H]4CC[C@H](CNC(=O)OC(C)(C)C)CC4)c4ccccc4n3)cn2)CC1` [Example 1, tert-butyl [(trans-4-{[({2-[6-(4-methylpiperazin-1-yl)pyridin-3-yl]quinolin-4-yl}carbonyl)amino]methyl}cyclohexyl)methyl]carbamate] are 50 nM and 200 nM.
The matching figures for `CC(C)(C)OC(=O)NC[C@H]1CC[C@H](CNC(=O)c2cc(-c3ccc(CNS(C)(=O)=O)cc3)nc3ccccc23)CC1` [Example 106, tert-Butyl ({trans-4-[({[2-(4-{[(methylsulfonyl)amino]methyl}phenyl)quinolin-4-yl]carbonyl}amino)methyl]cyclohexyl}methyl)carbamate]: 70 nM and 430 nM.
As for `CC(C)(C)OC(=O)NC[C@H]1CC[C@H](CNC(=O)c2ccnc(-c3ccc(F)c(F)c3)c2)CC1` [Example 53, tert-Butyl {[trans-4-({[2-(3,4-difluorophenyl)isonicotinoyl]amino}methyl)cyclohexyl]-methyl}carbamate], the values for the IC50 in test [1] and in test [2] were 9080 nM and above 20000 nM, respectively.
Consider `CC(C)(C)OC(=O)NC[C@H]1CC[C@H](CNC(=O)c2cc(-c3cccc(C(=O)O)c3)nc3ccccc23)CC1` [Example 108, 3-(4-{[(trans-4-{[(tert-Butoxycarbonyl)amino]methyl}cyclohexyl)methyl]-carbamoyl}quinolin-2-yl)benzoic Acid], for which the figures for the IC50 in test [1] and in test [2] were 450 nM and 7870 nM, respectively.
Regarding `CC(C)(C)OC(=O)NC[C@H]1CC[C@H](CNS(=O)(=O)c2ccc3c(c2)OCCO3)CC1` [Example 69, tert-Butyl [(trans-4-{[(2,3-dihydro-1,4-benzodioxin-6-ylsulfonyl)amino]methyl}cyclo-hexyl)methyl]carbamate], the IC50 in test [1] was found to be 4760 nM.
